Drawing on publication PMC7472660 (Chemical Science, 2019), this text covers Ki for two substances.

For the assay, the target named is prostate-specific membrane antigen (PSMA) (Homo sapiens, UniProt Q04609). Put plainly: radioligand displacement of […]mTc-MIP-1427 on PSMA+ PC-3 PiP cells. It is filed as cell-based.
Chain of prostate-specific membrane antigen (PSMA) (Q04609 whole entry): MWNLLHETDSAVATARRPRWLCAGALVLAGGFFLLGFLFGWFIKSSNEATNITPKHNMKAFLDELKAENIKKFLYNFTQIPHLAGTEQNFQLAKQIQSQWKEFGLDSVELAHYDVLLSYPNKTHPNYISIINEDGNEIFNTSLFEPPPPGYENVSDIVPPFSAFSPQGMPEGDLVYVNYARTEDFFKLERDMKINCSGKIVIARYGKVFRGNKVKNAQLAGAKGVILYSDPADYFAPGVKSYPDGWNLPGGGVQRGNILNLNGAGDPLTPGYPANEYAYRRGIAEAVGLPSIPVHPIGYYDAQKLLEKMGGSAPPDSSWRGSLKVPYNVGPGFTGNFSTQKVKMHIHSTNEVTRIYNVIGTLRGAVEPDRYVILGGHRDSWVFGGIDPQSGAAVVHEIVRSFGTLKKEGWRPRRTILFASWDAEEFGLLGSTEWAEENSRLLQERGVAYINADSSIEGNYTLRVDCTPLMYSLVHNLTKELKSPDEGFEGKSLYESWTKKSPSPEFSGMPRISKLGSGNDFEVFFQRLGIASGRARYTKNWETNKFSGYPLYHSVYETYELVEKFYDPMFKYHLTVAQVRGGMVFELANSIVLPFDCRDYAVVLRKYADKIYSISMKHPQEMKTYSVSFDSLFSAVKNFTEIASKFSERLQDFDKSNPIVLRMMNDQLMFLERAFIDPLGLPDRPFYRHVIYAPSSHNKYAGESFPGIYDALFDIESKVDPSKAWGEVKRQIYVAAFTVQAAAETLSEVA

Sc(picaga)-DUPA registered a Ki of 1.6 ± 0.4 nM. The figure for Sc(DOTA)-DUPA is 222 ± 186 nM.
